Assay results published in the supplement of paper PMC11061612.

How the values were obtained:
Test in all cases: combination Emax (second highest fraction inhibited in the dose matrix, 72 h); higher = more inhibition; extreme values may be limits of the assay
HuO-3N1 (Osteosarcoma) = tested on: HuO-3N1 (Osteosarcoma)
Summary of the method: (§1)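 Cell lines in DMEM/F12 or RPMI with 10% FBS were plated in 1536-well plates, held 24 hours at 37°C, 5% CO2, then given two-drug dose matrices for 72 hours (DMSO typically 0.2%). Viability was read by CellTiter-Glo 2.0 luminescence and scaled as inhibition from 0 (vehicle wells) to 1 (blank wells). Combination Emax is the second-highest inhibition in the matrix; Bliss excess is observed combination effect minus expected EA + EB − EA·EB, EA and EB being single-agent effects.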

KYM-1 (Rhabdomyosarcoma) = tested on: KYM-1 (Rhabdomyosarcoma)
Summary of the method: as §1

[1] = tested on: PANC-02-03 (Pancreatic Carcinoma)
Summary of the method: as §1

[2] = tested on: RERF-LC-KJ (Lung Adenocarcinoma)
Summary of the method: as §1

Row | SMILES | combination Emax (HuO-3N1 (Osteosarcoma)) | combination Emax (KYM-1 (Rhabdomyosarcoma)) | combination Emax [1] | combination Emax [2]
1 | CN(CCO)CC[C@H](CSc1ccccc1)Nc1ccc(S(=O)(=O)NC(=O)c2ccc(N3CCC([C@@H](O)c4ccccc4-c4ccc(Cl)cc4)CC3)cc2)cc1S(=O)(=O)C(F)(F)F [AZD4320] + CCN(CCO)CCCOc1ccc2c(Nc3cc(CC(=O)Nc4cccc(F)c4)[nH]n3)ncnc2c1 [AZD2811] (first compound max 1 µM, 7x7, partner max 1 µM) | 0.152 | 0.125 | 0.179 | 0.309
2 | Cc1c2c(nn1C)CSCc1cc(n(C)n1)CSc1cc(c3ccccc3c1)OCCCc1c(C(=O)O)n(C)c3c-2c(Cl)ccc13 [AZD5991] + CN(C)CCCOc1ccc(-c2ccc3ncc4c(c3c2)n(C2CCOCC2)c(=O)n4C)cn1 [AZD0156] (first compound max 1 µM, 7x7, partner max 1 µM) | 0.844 | 0.268 | 0.203 | 0.589
3 | C=CCn1c(=O)c2cnc(Nc3ccc(N4CCN(C)CC4)cc3)nc2n1-c1cccc(C(C)(C)O)n1 [AZD1775] + C[C@@H]1COCCN1C2=NC(=NC(=C2)C3(CC3)[S@](=N)(=O)C)C4=C5C=CNC5=NC=C4 [AZD6738] (first compound max 1 µM, partner max 10 µM) | 0.5 | 0.837 | 0.728 | 0.413
4 | CC1(C)CCC(CN2CCN(c3ccc(C(=O)NS(=O)(=O)c4ccc(NCC5CCOCC5)c([N+](=O)[O-])c4)c(Oc4cnc5[nH]ccc5c4)c3)CC2)=C(c2ccc(Cl)cc2)C1 [Venetoclax] + CCN(CCO)CCCOc1ccc2c(Nc3cc(CC(=O)Nc4cccc(F)c4)[nH]n3)ncnc2c1 [AZD2811] (first compound max 1 µM, 7x7, partner max 1 µM) | 0.256 | 0.162 | 0.217 | 0.298
5 | CC1(C)CCC(CN2CCN(c3ccc(C(=O)NS(=O)(=O)c4ccc(NCC5CCOCC5)c([N+](=O)[O-])c4)c(Oc4cnc5[nH]ccc5c4)c3)CC2)=C(c2ccc(Cl)cc2)C1 [Venetoclax] + COc1cc(Nc2ncc3c(n2)-c2ccc(Cl)cc2C(c2c(F)cccc2OC)=NC3)ccc1C(=O)O [Alisertib] (first compound max 1 µM, 7x7, partner max 10 µM) | 0.372 | 0.21 | 0.292 | 0.48
6 | COc1cccc(OCCCN)c1-c1cc(Nc2cnc(C#N)cn2)n[nH]1 [Prexasertib] + C[C@@H]1COCCN1C2=NC(=NC(=C2)C3(CC3)[S@](=N)(=O)C)C4=C5C=CNC5=NC=C4 [AZD6738] (first compound max 1 µM, 7x7, partner max 10 µM) | 0.432 | 0.956 | 0.639 | 0.278
7 | CN(CCO)CC[C@H](CSc1ccccc1)Nc1ccc(S(=O)(=O)NC(=O)c2ccc(N3CCC([C@@H](O)c4ccccc4-c4ccc(Cl)cc4)CC3)cc2)cc1S(=O)(=O)C(F)(F)F [AZD4320] + Cc1cc2ncnn2cc1Nc1ncc2c(n1)n(C1CCOCC1)c(=O)n2C [AZD7648] (first compound max 1 µM, 7x7, partner max 10 µM) | 0.139 | 0.0895 | 0.109 | 0.288
8 | COc1cccc(OCCCN)c1-c1cc(Nc2cnc(C#N)cn2)n[nH]1 [Prexasertib] + CN(C)CCCOc1ccc(-c2ccc3ncc4c(c3c2)n(C2CCOCC2)c(=O)n4C)cn1 [AZD0156] (first compound max 1 µM, 7x7, partner max 1 µM) | 0.48 | 0.952 | 0.609 | 0.349
9 | Cc1c2c(nn1C)CSCc1cc(n(C)n1)CSc1cc(c3ccccc3c1)OCCCc1c(C(=O)O)n(C)c3c-2c(Cl)ccc13 [AZD5991] + CCN(CCO)CCCOc1ccc2c(Nc3cc(CC(=O)Nc4cccc(F)c4)[nH]n3)ncnc2c1 [AZD2811] (first compound max 1 µM, 7x7, partner max 1 µM) | 0.875 | 0.62 | 0.269 | 0.584
10 | COc1cccc(OCCCN)c1-c1cc(Nc2cnc(C#N)cn2)n[nH]1 [Prexasertib] + CCc1c2c(nc3ccc(O)cc13)-c1cc3c(c(=O)n1C2)COC(=O)[C@]3(O)CC [SN-38] (first compound max 1 µM, 7x7, partner max 0.3 µM) | 0.808 | 0.97 | 0.756 | 0.903
11 | CC1(C)CCC(CN2CCN(c3ccc(C(=O)NS(=O)(=O)c4ccc(NCC5CCOCC5)c([N+](=O)[O-])c4)c(Oc4cnc5[nH]ccc5c4)c3)CC2)=C(c2ccc(Cl)cc2)C1 [Venetoclax] + CN(C)CCCOc1ccc(-c2ccc3ncc4c(c3c2)n(C2CCOCC2)c(=O)n4C)cn1 [AZD0156] (first compound max 1 µM, 7x7, partner max 1 µM) | 0.262 | 0.158 | 0.194 | 0.278
12 | CCN(CCO)CCCOc1ccc2c(Nc3cc(CC(=O)Nc4cccc(F)c4)[nH]n3)ncnc2c1 [AZD2811] + C=CCn1c(=O)c2cnc(Nc3ccc(N4CCN(C)CC4)cc3)nc2n1-c1cccc(C(C)(C)O)n1 [AZD1775] (first compound max 1 µM, partner max 1 µM) | 0.233 | 0.401 | 0.538 | 0.312
13 | CC1(C)CCC(CN2CCN(c3ccc(C(=O)NS(=O)(=O)c4ccc(NCC5CCOCC5)c([N+](=O)[O-])c4)c(Oc4cnc5[nH]ccc5c4)c3)CC2)=C(c2ccc(Cl)cc2)C1 [Venetoclax] + C[C@@H]1COCCN1C2=NC(=NC(=C2)C3(CC3)[S@](=N)(=O)C)C4=C5C=CNC5=NC=C4 [AZD6738] (first compound max 1 µM, 7x7, partner max 10 µM) | 0.393 | 0.839 | 0.508 | 0.313
14 | CC1(C)CCC(CN2CCN(c3ccc(C(=O)NS(=O)(=O)c4ccc(NCC5CCOCC5)c([N+](=O)[O-])c4)c(Oc4cnc5[nH]ccc5c4)c3)CC2)=C(c2ccc(Cl)cc2)C1 [Venetoclax] + C=CCn1c(=O)c2cnc(Nc3ccc(N4CCN(C)CC4)cc3)nc2n1-c1cccc(C(C)(C)O)n1 [AZD1775] (first compound max 1 µM, partner max 1 µM) | 0.386 | 0.314 | 0.494 | 0.283
15 | CCc1c2c(nc3ccc(O)cc13)-c1cc3c(c(=O)n1C2)COC(=O)[C@]3(O)CC [SN-38] + O=C(c1cc(Cc2n[nH]c(=O)c3ccccc23)ccc1F)N1CCN(C(=O)C2CC2)CC1 [Olaparib] (first compound max 0.3 µM, 7x7, partner max 10 µM) | 0.688 | 0.875 | 0.728 | –
16 | CC(=O)c1c(C)c2cnc(Nc3ccc(N4CCNCC4)cn3)nc2n(C2CCCC2)c1=O [Palbociclib] + CN(CC[C@H](CSC1=CC=CC=C1)NC2=C(C=C(C=C2)S(=O)(=O)NC(=O)C3=CC=C(C=C3)N4CCC(CC4)[C@H](C5=CC=CC=C5C6=CC=C(C=C6)Cl)O)S(=O)(=O)C(F)(F)F)CCO [AZD4320] (first compound max 10 µM, 7x7, partner max 1 µM) | 0.494 | – | – | 0.141
17 | C[C@@H](c1ccc2nccn2c1)n1nnc2ncc(-c3cnn(C)c3)nc21 [Savolitinib] + CN(CC[C@H](CSC1=CC=CC=C1)NC2=C(C=C(C=C2)S(=O)(=O)NC(=O)C3=CC=C(C=C3)N4CCC(CC4)[C@H](C5=CC=CC=C5C6=CC=C(C=C6)Cl)O)S(=O)(=O)C(F)(F)F)CCO [AZD4320] (first compound max 1 µM, 7x7, partner max 1 µM) | 0.201 | – | – | 0.206
18 | COc1nnc2ccc(N3CCC(c4ccc(OCCN5CCN(C)C(=O)[C@H]5C)cc4)CC3)nn12 [AZD5153] + CN(CC[C@H](CSC1=CC=CC=C1)NC2=C(C=C(C=C2)S(=O)(=O)NC(=O)C3=CC=C(C=C3)N4CCC(CC4)[C@H](C5=CC=CC=C5C6=CC=C(C=C6)Cl)O)S(=O)(=O)C(F)(F)F)CCO [AZD4320] (first compound max 1 µM, 7x7, partner max 1 µM) | 0.466 | – | – | 0.979
